# Data: patent publication US8377934B2, “Use of stilbene derivatives for treatment and prevention of aquatic mold infections” (State of Israel, Ministry of Agriculture & Rural …, priority 2006, dated 2013)
# Legend:
# Saprolegnia sp. = test: Non-randomized field trial in a cement pond, oomycete disease; format: in vivo, hybrid tilapia; details: 50 mg/L
# Method: (§1) Following transfer of 2000 hybrid tilapia fish (20-30 g) to a cement pond (1×10^5 L, 21 to 25° C.), white patches of filamentous mycelium were observed on the body and fins of fish, covering in most cases about 80% of the body surface. The mycelia appeared about four days after the transfer, presumably due to opportunistic infection by Saprolegnia sp. following handling stress. Death of 20 to 30 fish per day was recorded. All the dead fish were covered with mycelium, characteristic of Saprolegnia sp., and were also found to be infected with the parasites Gyrodactilus sp. and Trichodina sp.
# (§2) The water capacity in the pond was decreased to 3×10^4 L, and treatment with Blankophor® BA (50 mg/L) was initiated. A regimen of 3 treatments (8 h each) with 48 hours intervals between them was used.
# [1] = system: Gyrodactilus sp. and Trichodina sp.; test: Non-randomized field trial in a cement pond, concurrent parasitic disease; format: in vivo, hybrid tilapia; details: 50 mg/L, 3 treatments of 8 h at 48 h intervals; 2 days after end
# Method: as §1, §2
# ICR mice = test: Intravenous maximal tolerated dose in mice; format: in vivo; details: male ICR mice
# Method: Blankophor® BA was prepared at various concentrations in 5% dextrose and filter sterilized by passage through a sterile 0.2 μm pore size cellulose acetate filter (Schleicher & Schuell, Dassel, Germany). Male albino ICR mice (weight 30 g) were injected through the tail vein with various doses of Blankophor® BA. Each dosage form was administered intravenously as single bolus injection of 0.1 ml of the same dose every 10 min to a group of 10 mice until death was observed. The survival of mice that received the maximal tolerated dose (MTD) was monitored for 8 days.
# Daphnia sp. = test: Toxicity to zooplankton (motility); format: in vivo; details: 100 and 1,000 mg/L, 48 h
# Method: Daphnia sp. is a small (0.2 to 5 mm in length) planktonic crustacean, commonly used as a model for aquatic toxicity.
# Daphnia (˜1,000 […]/L water) was exposed to Blankophor® BA 100 and 1,000 mg/L). The experiment was carried out in covered flasks (100 ml/per flask), equipped with air supply. The flasks were incubated at room temperature for 48 h, and the Daphnia motility was recorded.
# [2] = system: Lake Kinneret water samples; test: Delayed Fluorescent Excitation Spectroscopy (DFES) of natural phytoplankton; format: cell-based; details: 100 mg/L; 4.6 μg/L prior to exposure
# Excerpt: (§3) The Delayed Fluorescent Excitation Spectroscopy (DFES) method was used for qualitative and quantitative assessment of the influence of Blankophor® BA on the natural population of phytoplankton, and on specific algae strains. Delayed fluorescence is a unique characteristic of photosynthetically active cells, as it is an outcome of recombination that takes place in the thylakoids in the dark (Yacobi Y. Z., V. Gerhardt, Y. Gonen-Zurgil, and A. Sukenik. 1998. Delayed fluorescence excitation spectroscopy: a rapid method for the qualitative and quantitative assessment of natural population of phytoplankton. Wat. Res. 00:1-6).
# (§4) Samples from Lake Kinneret and pure cultures of Peridinium sp. and Microcystis sp. were exposed to Blankophor® BA (100 mg/L), for a few minutes and the concentration of chlorophyll-a was determined (in duplicate) according to the excitation spectrum examined (range from 400 to 730 nm). In addition, the exposed and non-exposed samples were assessed for carbon uptake with a ^14C technique.
# Microcystis = test: Delayed Fluorescent Excitation Spectroscopy (DFES) of pure algal culture; format: cell-based, Microcystis sp.; details: 100 mg/L
# Excerpt: as §3, §4
smiles,measurement,setting,value
O=S(=O)([O-])c1cc(Nc2nc(Nc3ccccc3)nc(N(CCO)CCO)n2)ccc1C=Cc1ccc(Nc2nc(Nc3ccccc3)nc(N(CCO)CCO)n2)cc1S(=O)(=O)[O-].[K+].[Na+] [Blankophor® BA],presence of Saprolegnia sp. on visual and microscopic examination,"Saprolegnia sp.; 3 treatments of 8 h at 48 h intervals, 2 days after end",free of
same,deaths recorded,Saprolegnia sp.; after the first 8 h treatment,no further deaths
same,prevalence and intensity of saprolegniosis,Saprolegnia sp.; after the first 8 h treatment,Significant reduction
same,presence of parasites on visual and microscopic examination,[1],free of
same,maximal tolerated dose (MTD),ICR mice,> 1000 mg/kg
same,Daphnia motility versus non-exposed control,Daphnia sp.,no difference
same,total chlorophyll concentration (average),[2],9.2 µg/L
same,photosynthetic activity versus non-treated samples,Microcystis,no difference
